The results in this text go back to patent US20210145801A1, “THERAPY FOR PROTEIN MISFOLDING DISEASE” (WREN THERAPEUTICS LIMITED, priority 2018, published 2021).

One data set concerns AD worms (GMC101). Conditions: GMC101, C. elegans, in vivo. The method, then:
Briefly, Netoglitazone stocks (5 mM in 100% DMSO) were used at an appropriate concentration to seed 9-cm NGM plates. Plates were then placed in a laminar flow hood at room temperature (22° C.) for up to 4 hours to dry. C. elegans cultures were then transferred onto media seeded with compound as L4 stage or Day 3 for late treatments and incubated at 24° for the whole experiment. Experiments were carried out at different Netoglitazone concentrations ranging from 0.05 to 500 μM in 1% DMSO. As controls, plates seeded only with 1% DMSO were used.

Another data set has as its system Aβ plaques. Nature of the data set: Aβ plaque quantification in APPPS1 transgenic mice. Particulars: 75 mg/kg/day once daily for 90 days from 60 days of age. The data set is classed as in vivo. The method, then:
APPPS1 transgenic mice were used in the study, which co-express the Swedish mutation […] and PS1 mutation L166P under the control of the neuron-specific Thy-1 promoter on a C57BL/6 genetic background. APPPS1 mice were habituated ahead of the study to voluntarily drink a condensed milk formulation from a pipette. The condensed milk used in the study is commercially available (Migros) and contains milk, sugar, stabilizer E339. Body weight was measured ahead of commencing the study to calculate the dose of Netoglitazone for each mouse and to calculate the total blood volume. Mice aged 60 days old were then dosed once daily with a pipette for 90 days. The pipette contained 40-80 μL consisting of either condensed milk (2 ml/kg/day) only (placebo cohort) or condensed milk (2 ml/kg/day) and Netoglitazone (75 mg/kg/day). Blood was collected via retro-orbital sampling to monitor the concentration of Netoglitazone after 7 days and 28 days. Visual monitoring of the mice and measurement of body weight were conducted daily and every other week respectively. At the end of the experiment (i.e. after 90 days of once daily treatment such that mice were 150 days old), mice were euthanized and their brains were analyzed as outlined below. […]
The image files were analysed using custom-coded software. […]

The subject of the next data set is PD worms (NL5901). Nature of the data set: Automated motility assay in PD worms. Conditions: same concentration range as in AD worms. The data set is classed as in vivo, C. elegans. The method, then:
Standard conditions were used for the propagation of C. elegans (S. Brenner, The genetics of Caenorhabditis elegans. Genetics. 77, 71-94 (1974)). Briefly, the animals were synchronized by hypochlorite bleaching, hatched overnight in M9 buffer (3 g/l KH2PO4, 6 g/l Na2HPO4, 5 g/l NaCl, […]), and subsequently cultured at 20° C. on nematode growth medium (NGM) (CaCl2) 1 mM, MgSO4 1 mM, cholesterol 5 μg/mL, PBS Buffer (250 μM KH2PO4, 67.5 μM KCl, 3.425 mM of NaCl, pH 6), Agar 17 g/L, NaCl 3 g/1, casein 7.5 g/l) plates seeded with the E. coli strain OP50. […]
All C. elegans populations were cultured at 20° C. and developmentally synchronized from a 4 h egg-lay. At 64-72 h post-egg-lay (time zero), individuals were transferred to FUDR plates, and body movements were assessed over the times indicated. At different ages, the animals were washed off the plates with M9 buffer and spread over an OP-50 unseeded 9 cm plate, after which their movements were recorded at 20 fps using a recently developed microscopic procedure (M. Perni et al., Massively parallel C. elegans tracking provides multi-dimensional fingerprints for phenotypic discovery. J. Neurosci. Methods. 306, 57-67 (2018)) for 1 min. Up to 600 animals were counted in each experiment in duplicate unless stated otherwise. […]

For the compound `O=C1NC(=O)C(Cc2ccc3cc(OCc4ccccc4F)ccc3c2)S1` (stereo not drawn) [Netoglitazone], in the data set with AD worms (GMC101), the “Maximum tolerable dose in AD worms” value was “less than 50 μM”. Also, in the data set with Aβ plaques, the “Relative number of Aβ plaques in brain vs placebo” value is given as “decrease in the relative number of Aβ plaques”. In addition, the “Effect on mobility of PD worms” value with PD worms (NL5901) is “negligible compared to the observed effect in AD worms”.
